Measured values reported in US20240300991A1, “NUCLEOSIDE DERIVATIVE HAVING MULTI-TARGET KINASE INHIBITORY ACTIVITY AND PHARMACEUTICAL COMPOSITION FOR PREVENTING AND TREATING CANCER COMPRISING SAME” (FUTURE MEDICINE CO., LTD., priority 2021, published 2024).

Columns and labels:
[1] = target: T1, NTRK1 (Homo sapiens, UniProt P04629); experiment: Kinase inhibition test (DNA-tagged kinase, affinity resin, qPCR readout); format: binding; parameters: key: (−) indicates no effect; (+) indicates weak inhibitory activity; (++) indicates a moderate level of inhibitory activity; (+++) indicates strong inhibitory activity; details: 1 μM of compound
T1 construct: made in house
Source text: (§1) In order to examine the inhibitory activity of the nucleoside derivatives of the present invention synthesized in the Preparation Examples against kinases, the nucleoside derivatives were confirmed to have inhibitory activity against neurotrophic tyrosine kinase receptor type 1 or tropomyosin receptor kinase A (NTRK1), casein kinase 1 isoform delta (CSNK1D), dual specificity tyrosine-phosphorylation-regulated kinase 1A (DYRK1A), dual specificity tyrosine-phosphorylation-regulated kinase 1B (DYRK1B) and receptor-type tyrosine-protein kinase or fms like tyrosine kinase 3 or cluster of differentiation antigen 135 (CD135) or fetal liver kinase-2 (Flk2) (FLT3).
(§2) The inhibition measurement method is as follows. Most of the kinases were produced by culturing a phage in which BL21 E. coli was tagged with a kinase at 32° C. until lysis, followed by centrifugation and filtration. Further, the kinases were produced using HEK-293 cells. Thereafter, the kinases were DNA tagged for qPCR. After an affinity resin was prepared by stirring a biotin-tagged substrate onto streptavidin-coated beads for 30 minutes, a non-specifically bound substrate was washed with a buffer (SeaBlock (Pierce), 1% BSA, 0.05% Tween 20, 1 mM DTT).
(§3) For a kinase test, the kinase, the substrate, the affinity resin, and a test material dissolved in dimethyl sulfoxide were stirred together in a buffer (20% SeaBlock, 0.17×PBS, 0.05% Tween20, and 6 mM DTT) at room temperature for 1 hour. Thereafter, an affinity substrate was washed with a buffer (1×PBS, 0.05% Tween20), and then suspended in an elution buffer (1×PBS, 0.05% Tween20, 0.5 μM non-biotinylated affinity ligand), and the resulting suspension was stirred. The concentration of the kinase was quantified by qPCR.

[2] = target: T2, DYRK1B (Homo sapiens, UniProt Q9Y463); experiment: as above; format: binding; parameters: key: (−) indicates no effect; (+) indicates weak inhibitory activity; (++) indicates a moderate level of inhibitory activity; (+++) indicates strong inhibitory activity; details: 1 μM of compound
T2 construct: made in house
Source text: as §1, §2, §3

[3] = target: T3, CSNK1D (Homo sapiens, UniProt P48730); experiment: as above; format: binding; parameters: key: (−) indicates no effect; (+) indicates weak inhibitory activity; (++) indicates a moderate level of inhibitory activity; (+++) indicates strong inhibitory activity; details: 1 μM of compound
T3 construct: made in house
Source text: as §1, §2, §3

[4] = target: T4, DYRK1A (Homo sapiens, UniProt Q13627); experiment: as above; format: binding; parameters: key: (−) indicates no effect; (+) indicates weak inhibitory activity; (++) indicates a moderate level of inhibitory activity; (+++) indicates strong inhibitory activity; details: 1 μM of compound
T4 construct: made in house
Source text: as §1, §2, §3

[5] = system: SNU638 (stomach cancer cells); experiment: Inhibitory activity against cancer cells (sulforhodamine B staining); format: cell-based; details: 3 days, SRB staining
Experimental: (§4) In order to examine the anticancer activity of the nucleoside derivatives of the present invention synthesized in the Preparation Examples, the ICso of each of A549 (lung cancer cells), HCT116 (colon cancer cells), MDA-MB-231 (breast cancer cells), SK-Hep-1 (liver cancer cells), SNU638 (stomach cancer cells) and PC-3 (prostate cancer cells) against cancer cells was measured.
(§5) The test method is as follows. Cells were allowed to stand for 1 day and set as a control on day 0. Further, after a test material was added to the cells, the cells were allowed to stand for 3 days. Thereafter, the cells were stained with 1% acetic acid and 0.4% sulforhodamine B. The stained cells were dried and dissolved in 10 mM Tris (pH 10.0). Absorbance was measured at 515 nm, and the degree of cell division was determined using the following equation. After calculation as Cell division (%)=(average absorbancetest material−average absorbanceday 0)/(average absorbance control-average absorbanceday 0)×100, the degree of cell division was calculated through a non-linear regression analysis using Table Curve 2D v5.01 (Systat Software Inc., San Jose, CA, USA).

[6] = system: MDA-MB-231 (breast cancer cells); experiment: as above; format: cell-based; details: 3 days, SRB staining
Experimental: as §4, §5

[7] = system: A549 (lung cancer cells); experiment: as above; format: cell-based; details: 3 days, SRB staining
Experimental: as §4, §5

[8] = system: SK-Hep-1 (liver cancer cells); experiment: as above; format: cell-based; details: 3 days, SRB staining
Experimental: as §4, §5

[9] = system: HCT116 (colon cancer cells); experiment: as above; format: cell-based; details: 3 days, SRB staining
Experimental: as §4, §5

[10] = system: PC-3 (prostate cancer cells); experiment: as above; format: cell-based; details: 3 days, SRB staining
Experimental: as §4, §5

T2 sequence (Q9Y463 whole entry): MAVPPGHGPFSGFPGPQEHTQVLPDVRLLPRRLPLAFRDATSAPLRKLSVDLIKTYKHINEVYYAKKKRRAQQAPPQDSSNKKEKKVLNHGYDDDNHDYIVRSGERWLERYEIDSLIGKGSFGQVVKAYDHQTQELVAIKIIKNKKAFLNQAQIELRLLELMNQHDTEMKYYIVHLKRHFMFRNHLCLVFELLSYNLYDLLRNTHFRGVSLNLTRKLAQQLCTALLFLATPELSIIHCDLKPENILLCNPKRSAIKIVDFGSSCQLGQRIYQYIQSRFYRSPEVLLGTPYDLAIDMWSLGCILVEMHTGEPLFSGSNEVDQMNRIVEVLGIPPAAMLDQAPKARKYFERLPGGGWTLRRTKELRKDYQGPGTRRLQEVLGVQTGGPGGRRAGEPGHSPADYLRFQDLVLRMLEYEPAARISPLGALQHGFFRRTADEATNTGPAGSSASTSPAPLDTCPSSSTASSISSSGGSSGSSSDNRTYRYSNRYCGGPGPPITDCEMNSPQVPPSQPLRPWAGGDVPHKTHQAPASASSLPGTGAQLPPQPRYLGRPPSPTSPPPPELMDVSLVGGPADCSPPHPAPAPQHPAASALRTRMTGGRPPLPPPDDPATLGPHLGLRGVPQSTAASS
T1 sequence (P04629 33-796): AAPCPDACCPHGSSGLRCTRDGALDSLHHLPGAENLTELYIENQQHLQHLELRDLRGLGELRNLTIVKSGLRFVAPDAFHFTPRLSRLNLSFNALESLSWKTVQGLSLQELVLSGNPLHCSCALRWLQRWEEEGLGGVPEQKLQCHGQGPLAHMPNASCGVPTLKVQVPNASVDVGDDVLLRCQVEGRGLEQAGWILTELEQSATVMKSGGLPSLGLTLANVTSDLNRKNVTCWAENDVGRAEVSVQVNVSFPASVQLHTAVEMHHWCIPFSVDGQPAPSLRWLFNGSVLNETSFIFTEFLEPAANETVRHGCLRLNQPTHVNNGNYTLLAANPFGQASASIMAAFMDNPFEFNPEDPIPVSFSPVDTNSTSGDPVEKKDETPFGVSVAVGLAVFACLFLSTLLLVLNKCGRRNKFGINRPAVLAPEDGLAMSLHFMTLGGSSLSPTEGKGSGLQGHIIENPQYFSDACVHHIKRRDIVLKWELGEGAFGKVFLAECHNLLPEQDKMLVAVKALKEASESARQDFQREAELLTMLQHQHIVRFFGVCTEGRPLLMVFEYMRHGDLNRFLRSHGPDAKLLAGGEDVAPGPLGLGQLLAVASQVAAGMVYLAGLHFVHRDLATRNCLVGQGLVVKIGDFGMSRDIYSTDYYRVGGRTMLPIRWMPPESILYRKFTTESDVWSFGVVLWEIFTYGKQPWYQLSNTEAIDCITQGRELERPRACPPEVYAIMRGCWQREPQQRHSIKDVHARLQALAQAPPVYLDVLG
T3 sequence (P48730 whole entry): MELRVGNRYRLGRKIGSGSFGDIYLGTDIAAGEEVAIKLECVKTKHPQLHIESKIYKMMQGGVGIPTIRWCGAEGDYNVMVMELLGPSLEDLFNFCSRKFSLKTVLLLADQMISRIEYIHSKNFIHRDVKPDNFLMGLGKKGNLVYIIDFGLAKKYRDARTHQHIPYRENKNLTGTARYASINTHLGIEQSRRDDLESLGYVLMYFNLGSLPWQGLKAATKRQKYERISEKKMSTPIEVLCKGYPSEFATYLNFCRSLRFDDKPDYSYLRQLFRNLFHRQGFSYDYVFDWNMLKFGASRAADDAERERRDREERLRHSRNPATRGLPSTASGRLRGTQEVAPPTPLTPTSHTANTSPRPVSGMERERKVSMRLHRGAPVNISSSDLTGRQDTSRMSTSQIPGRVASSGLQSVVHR

| Structure (SMILES) | NTRK1 inhibitory activity [1] | DYRK1B inhibitory activity [2] | CSNK1D inhibitory activity [3] | DYRK1A inhibitory activity [4] | IC50 ([5]; Homo sapiens, SNU-638, 72 h) | IC50 ([6]; Homo sapiens, 72 h) | IC50 ([7]; Homo sapiens, 72 h) | IC50 ([8]; Homo sapiens, SK-HEP1, 72 h) | IC50 ([9]; Homo sapiens, HCT-116, 72 h) | IC50 ([10]; 72 h) | IC50 [5] | IC50 [6] | IC50 [7] | IC50 [8] | IC50 [9] | IC50 [10] |
| --- | --- | --- | --- | --- | --- | --- | --- | --- | --- | --- | --- | --- | --- | --- | --- | --- |
| N#Cc1cn([C@@H]2S[C@H](CO)[C@@H](O)[C@H]2O)c2ncnc(N)c12 [Compound 5, 4-amino-7-((2R,3R,4S,5R)-3,4-dihydroxy-5-(hydroxymethyl)tetrahydrothiophen-2-yl)-7H-pyrrolo[2,3-d]pyrimidine-5-carbonitrile] | ++ | ++ | ++ | +++ | 1.22 µM | 2.24 µM | 2.58 µM | 1.79 µM | 1.59 µM | 2.18 µM |  |  |  |  |  |  |
| C#Cc1cn([C@@H]2S[C@H](COC(=O)c3ccc(OC)cc3)[C@@H](O)[C@H]2O)c2ncnc(N)c12 [Compound 7d] | ++ | ++ | ++ | ++ |  |  |  |  |  |  | 0.19 µM | 0.36 µM | 0.35 µM | 0.25 µM | 0.3 µM | 0.33 µM |
| Nc1ncnc2c1c(C#CC1CC1)cn2[C@@H]1S[C@H](CO)[C@@H](O)[C@H]1O [Compound 4d] | ++ | − | + | − |  |  |  |  |  |  | > 50 µM | 30.6 µM | > 50 µM | 8.31 µM | > 50 µM | > 50 µM |
| CC(C)(C)C#Cc1cn([C@@H]2S[C@H](CO)[C@@H](O)[C@H]2O)c2ncnc(N)c12 [Compound 4c] | + | − | + | − |  |  |  |  |  |  | > 50 µM | 29.6 µM | > 50 µM | > 50 µM | > 50 µM | > 50 µM |
| C#Cc1cn([C@@H]2S[C@H](COC(=O)c3ccc(Cl)cc3)[C@@H](O)[C@H]2O)c2ncnc(N)c12 [Compound 7c] | ++ | ++ | ++ | ++ |  |  |  |  |  |  | 0.13 µM | 0.29 µM | 0.27 µM | 0.18 µM | 0.23 µM | 0.23 µM |
| N#Cc1cn([C@@H]2SC[C@@H](O)[C@H]2O)c2ncnc(N)c12 [Compound 13f] | ++ | +++ | ++ | ++ |  |  |  |  |  |  | 9.35 µM | 2.41 µM | 2.36 µM | 5.78 µM | 6.37 µM | 2.45 µM |
| C#Cc1cn([C@@H]2S[C@H](COC(=O)c3c(C)cccc3C)[C@@H](O)[C@H]2O)c2ncnc(N)c12 [Compound 7e] | +++ | ++ | ++ | ++ |  |  |  |  |  |  | 4.84 µM | 4.68 µM | 6.47 µM | 4.39 µM | 6.42 µM | 5.59 µM |
| Nc1ncnc2c1c(-c1ccccc1)cn2[C@@H]1S[C@H](CO)[C@@H](O)[C@H]1O [Compound 2b] | ++ | ++ | +++ | ++ |  |  |  |  |  |  | 6.32 µM | 8.83 µM | 7.57 µM | 7.81 µM | 6.35 µM | 9.21 µM |
| C#Cc1cn([C@@H]2S[C@H](CO)[C@@H](O)[C@H]2O)c2ncnc(N)c12 [Compound 3, (2R,3R,4S,5R)-2-(4-amino-5-ethynyl-7H-pyrrolo[2,3-d]pyrimidin-7-yl)-5-(hydroxymethyl)tetrahydrothiophene-3,4-diol] | ++ | +++ | ++ | +++ | 0.03 µM | 0.05 µM | 0.06 µM | 0.05 µM | 0.03 µM | 0.004 µM |  |  |  |  |  |  |
| N#Cc1cn([C@@H]2S[C@H](CNC(=O)c3ccccc3)[C@@H](O)[C@H]2O)c2ncnc(N)c12 [Compound 8d] | +++ | +++ | ++ | ++ |  |  |  |  |  |  | 23.7 µM | 9.34 µM | 11.2 µM | 13.8 µM | 8.9 µM | 6.67 µM |
| NC(=O)c1cn([C@@H]2S[C@H](CNC(=O)c3ccccc3)[C@@H](O)[C@H]2O)c2ncnc(N)c12 [Compound 8e] | ++ | ++ | ++ | ++ |  |  |  |  |  |  | 9.34 µM | 6.78 µM | 45.2 µM | 10 µM | 12.5 µM | 4.65 µM |
| NC(=O)NC[C@H]1S[C@@H](n2cc(C(N)=O)c3c(N)ncnc32)[C@H](O)[C@@H]1O [Compound 11aiii] | ++ | ++ | ++ | ++ |  |  |  |  |  |  | 5.57 µM | 2.46 µM | 4.53 µM | 7.34 µM | 1.36 µM | 2.81 µM |
